Data on 15 molecules can be found in PubChem BioAssay (NCI).

Each structure is given as a SMILES string.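 Protocol summary: plate cells (96-well), add compound at 5 concentrations, incubate 48 h, interpolate endpoints linearly. TGI is the concentration that stops growth completely.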

Common to all, as to assay: NCI-60 cell line screen, 48 h
Assay [1] has as its system 786-0 renal.
Assay [2] deals with A549 NSCLC.
The subject of assay [3] is DU-145 prostate.
Assay [4] has as its system EKVX NSCLC.
Assay [5] has as its system HCC-2998 colon.
Assay [6] relates to LOX IMVI melanoma.
For assay [7], the system named is MDA-N.
Assay [8] relates to NCI-H522 lung.
In assay [9] the test system is RXF 393 renal.
For assay [10], the system named is SF-268 CNS.
In assay [11] the test system is SF-539 CNS.
Assay [12] relates to SK-OV-3 ovarian.
Assay [13] deals with SNB-19 CNS.
In assay [14] the test system is SNB-75 CNS.
In assay [15] the test system is TK-10 renal.
Assay [16] relates to U251 CNS.
Assay [17] relates to CCRF-CEM leukemia.
Assay [18] relates to HOP-62 NSCLC.
The test system of assay [19] is NCI-H23 lung.
In assay [20] the test system is SF-295 CNS.

Regarding `Cc1cc(S(=O)(=O)n2ccnc2Oc2ccccc2)c(SSc2cc(Cl)c(C)cc2S(=O)(=O)n2ccnc2Oc2ccccc2)cc1Cl`, the TGI in assay [1], in [2], in assay [3], in [4], in [5] and in assay [6] was greater than 100 µM each time. For the same molecule, the TGI in assay [7], in assay [8], in assay [9], in assay [10], in assay [11] and in assay [12] was greater than 100 µM each time. For the same molecule, the TGI in [13], in assay [14], in assay [15] and in assay [16] was greater than 100 µM throughout.
Take `COC(=O)[C@]12CCC(C)(C)C[C@H]1C1=CC[C@@H]3[C@@]4(C)CC[C@H](OC5OC(CO)C(O)C(O)C5OC5OC(CO)C(O)C(O)C5O)C(C)(C)[C@@H]4CC[C@@]3(C)[C@]1(C)CC2` (stereo not given in full): the TGI in assay [1] was determined as 23.8 µM; in assay [2], 22.2 µM; in assay [17], 33.8 µM; in assay [3], 24.5 µM; in assay [4] it was 26 µM; in assay [5] it was 37.9 µM. The TGI worked out at 25.3 µM in assay [18]; 20.2 µM in [6]; 18.4 µM in assay [7]; 19.6 µM in assay [19]; 8.71 µM in assay [8]; 19.7 µM in [9]. Moreover, the TGI in assay [10] turned out to be 31.2 µM; in assay [20], 27.2 µM; in [12] it was 36.1 µM; in [13], 29.6 µM; in assay [14], 26.4 µM; in assay [16] it was 26.3 µM.
Regarding `N#Cc1c(N)c2c(c(-c3ccccc3)c1-c1ccccc1)C(=O)N(NC(=O)c1ccccc1)C2=O`, the TGI in [1], in [2], in [17], in assay [3], in assay [4] and in assay [5] was greater than 100 µM throughout. Besides, the TGI in assay [6], in [7], in assay [8], in assay [9], in assay [10] and in [20] was greater than 100 µM in each case. The TGI in assay [11], in assay [13], in assay [14], in assay [15] and in [16] was greater than 100 µM each time.
As to `COC(=O)[C@@H]1C2OC(C)(C)OC2CN1C(=O)OCc1ccccc1` (stereo not given in full), the TGI in [1], in assay [2], in assay [3], in [4], in [5] and in assay [18] was greater than 100 µM throughout. Besides, the TGI in assay [6], in assay [7], in assay [19], in assay [8], in assay [9] and in assay [10] was greater than 100 µM throughout. Moreover, the TGI in assay [20], in [11], in [12], in assay [13], in assay [14] and in [15] was greater than 100 µM each time. For the same molecule, the TGI in assay [16] is greater than 100 µM.
On to `Cc1cc(C)n(-c2nc3ccccc3c(=O)n2-c2ccccc2)n1`, for which the TGI in [1], in assay [2], in [17], in assay [3], in assay [5] and in assay [18] was greater than 100 µM throughout. Further, the TGI in assay [6], in assay [7], in assay [19], in [8], in assay [9] and in assay [10] was greater than 100 µM each time. Besides, the TGI in [20], in assay [11], in [12], in assay [13], in assay [14] and in assay [15] was greater than 100 µM in each case. Further, the TGI in assay [16] was greater than 100 µM.
As for `COc1ccc(N2C(=O)c3cccnc3S2(=O)=O)cc1`, the TGI in assay [1], in [2], in assay [17], in assay [3], in assay [4] and in [5] was greater than 100 µM each time. The TGI in assay [18], in assay [7], in [19], in assay [8], in [9] and in [10] was greater than 100 µM each time. Further, the TGI in assay [20], in assay [11], in assay [12], in assay [13], in [14] and in assay [16] was greater than 100 µM throughout.
`C[C@H]1CCCCC[C@@H]2CC(=O)CC2C(=O)CCC(=O)O1` (stereo not given in full): the TGI in [1], in [2], in assay [17], in [3], in [4] and in assay [5] was greater than 100 µM each time. For the same molecule, the TGI in assay [18], in [7], in assay [19], in assay [8], in [9] and in [10] was greater than 100 µM in each case. The TGI in assay [20], in assay [11], in assay [13], in [14], in [15] and in [16] was greater than 100 µM throughout.
Regarding `Cc1ccc(C(CC(=O)C(C)(C)CN2CCCCC2)SCCS(=O)(=O)O)cc1` (stereo not given), the TGI in assay [1] is 59.9 µM; in assay [2], greater than 100 µM; in assay [17], 45.9 µM; in assay [3] it was greater than 100 µM; in assay [4] it was 66.5 µM; in assay [5], 83.3 µM. Moreover, the TGI in assay [18] is 78.8 µM; in [7], greater than 100 µM; in assay [19], 86.5 µM; in [8], 51.2 µM; in assay [9] it was 57.1 µM; in [10] it was greater than 100 µM. Also, the TGI was 73.4 µM in assay [20]; 49.1 µM in [11]; 91 µM in assay [12]; greater than 100 µM in [13]; 96.4 µM in assay [14]; 86 µM in [15]. In addition, in assay [16], the TGI stood at 81.8 µM.
On to `Cc1cc2c(cc1C)C(=O)C1(C2)Cc2c(ccc(C)c2C)C1=O` (stereo not given), for which the TGI in [1], in assay [2], in assay [17], in assay [3], in [4] and in assay [5] was greater than 100 µM in each case. Also, the TGI in assay [6], in assay [7], in assay [8], in assay [9], in [10] and in assay [20] was greater than 100 µM throughout. Besides, the TGI in assay [11], in assay [13], in assay [14], in assay [15] and in assay [16] was greater than 100 µM in each case.
Regarding `COc1ccc(OC)c(-c2nc3ccccc3c(=O)[nH]2)c1`, the TGI in [1], in assay [2], in assay [17], in assay [3], in assay [4] and in assay [5] was greater than 100 µM in each case. For the same molecule, the TGI in assay [18], in [7], in assay [19], in assay [9], in assay [10] and in assay [20] was greater than 100 µM throughout. In addition, the TGI in [11], in assay [12], in [13], in [14] and in assay [16] was greater than 100 µM throughout.
Regarding `CN1C(=O)[C@@H]2N(CSC2(C)C)C1=S`, the TGI in assay [1], in [2], in assay [3], in assay [4], in [5] and in assay [18] was greater than 100 µM in each case. Moreover, the TGI in [7], in assay [19], in assay [8], in assay [9], in assay [10] and in assay [20] was greater than 100 µM throughout. Besides, the TGI in assay [11], in assay [12], in assay [13], in [14], in assay [15] and in assay [16] was greater than 100 µM throughout.
Consider `Nc1ccc2cc3[nH]c4cc(N)ccc4c3nc2c1`, for which the TGI in assay [1] was 1.39 µM; in assay [2], 3.38 µM; in assay [3], 2.4 µM; in assay [4] it was 1.93 µM; in [5], 0.976 µM; in assay [18], 1.13 µM. The TGI in [6] was 0.911 µM; in assay [7], 1.13 µM; in assay [19] it was 0.893 µM; in assay [8] it was 64.6 µM; in assay [9], 1.98 µM; in assay [10], 1.8 µM. For the same molecule, the TGI in assay [20] came out at 1.37 µM; in [11], 1.4 µM; in assay [12] it was 2.03 µM; in [13], 3.76 µM; in [14], 1.33 µM; in [15], 7.98 µM. In assay [16], this molecule came in with a TGI of 2.37 µM.
Turning to `CC1=C(C#N)C2C(=C(N)Oc3ccccc32)C(N)=N1` (stereo not given), the TGI is 60.9 µM in assay [1]; greater than 100 µM in assay [2]; greater than 100 µM in assay [17]; 60.9 µM in assay [3]; 73.8 µM in [4]; 69.8 µM in assay [5]. Also, the TGI in [18] is greater than 100 µM; in [6] it was 81.7 µM; in assay [7] it was greater than 100 µM; in assay [8], 36.2 µM; in assay [9], greater than 100 µM; in assay [10] it was 67.4 µM. Moreover, the TGI in assay [20] was greater than 100 µM; in [11], 61.3 µM; in assay [12] it was greater than 100 µM; in assay [13], 56.3 µM; in assay [14], 64.1 µM; in [15], 47.5 µM. This molecule also yielded a TGI in assay [16] greater than 100 µM.
In the case of `Cc1ccsc1C(=O)C(CC(=O)c1cccs1)c1ccsc1` (stereo not given), the TGI in assay [1], in [2], in assay [17], in assay [3], in [4] and in assay [5] was greater than 100 µM each time. Besides, the TGI in assay [18], in assay [7], in assay [19], in assay [8], in [9] and in assay [10] was greater than 100 µM throughout. Also, the TGI in assay [20], in [11], in [12], in [13], in assay [14] and in assay [15] was greater than 100 µM each time. For the same molecule, the TGI in assay [16] was greater than 100 µM.
On to `CCOC(CI)O[C@@H]1C=C[C@H](OC(C)=O)C1` (stereo not given in full), for which the TGI in [1], in assay [2], in [17], in assay [3], in assay [4] and in [5] was greater than 100 µM each time. Also, the TGI in assay [18], in assay [7], in [19], in [9], in assay [10] and in assay [20] was greater than 100 µM throughout. Besides, the TGI in assay [11], in [12], in assay [13], in assay [14] and in assay [16] was greater than 100 µM each time.
